Experimental data from the OPERA property sets (Mansouri et al. 2018).

Compound | logP
COC(=O)c1c(C)cccc1C | 2.55
COC(=O)c1cccc([N+](=O)[O-])c1 | 1.89
CC(=O)Oc1c(C)cccc1C | 2.32
Cc1cccc(Cl)c1O | 2.8
Oc1c(Br)cccc1Br | 3.36
COC(=O)c1cccc(Cl)c1 | 2.85
CCc1cccc(CC)c1OC(C)=O | 3.4
Cc1cccc(C)c1C(=O)O | 2.21
COC(=O)c1c(F)cccc1Cl | 2.42
COC(=O)c1c(F)cccc1F | 1.96
COC(=O)c1c(Cl)cccc1[N+](=O)[O-] | 2.21
CC(=O)Oc1c(Cl)cccc1Cl | 2.94
O=C(O)c1c(Cl)cccc1[N+](=O)[O-] | 1.56
COC(=O)c1ccc([N+](=O)[O-])cc1 | 1.89
Cc1nc(N)sc1C(=O)CCN(C)C | 1.47
COC(=O)c1ccccc1OC | 2.04
O=C(O)c1c(F)cccc1F | 1.59

Compound | logP
Cc1cccc(Cl)c1C(=O)O | 2.31
NC(=O)c1ccccc1[N+](=O)[O-] | -0.12
CCc1cccc(CC)c1O | 3.03
Oc1c(F)cccc1F | 1.96
COc1cccc(OC(C)=O)c1 | 1.61
CCOc1cccc(OC(C)=O)c1 | 2.08
COC(=O)c1ccc(C)cc1 | 2.7
CSc1ccccc1C(N)=O | 0.71
COC(=O)c1ccc(F)cc1 | 2.28
N#Cc1ccccc1C(N)=O | 0
CCc1cccc(OC(C)=O)c1 | 2.45
COC(=O)c1ccccc1F | 1.82
COC(=O)c1ccccc1[N+](=O)[O-] | 1.66
COC(=O)c1c(Cl)cccc1Cl | 2.79
COC(=O)c1ccccc1I | 2.74
COC(=O)c1ccc(Br)cc1 | 2.95
COC(=O)c1cccc(C)c1 | 2.77
